The record followed here is article PMC11638965, “Leveraging Dual-Ligase Recruitment to Enhance Protein Degradation via a Heterotrivalent Proteolysis Targeting Chimera” (Journal of the American Chemical Society, 2024).

One assay has as its system RKO WT cells. As to the kind of experiment: cells. The class given is cell-based, human. To be noted: Homo sapiens. As to the method:
RKO WT, VHL KO, CRBN KO and CRBN/VHL dKO cells were cultured in Dulbecco’s modified Eagle’s medium supplemented with 10% FCS and 1% penicillin–streptomycin. RKO CRBN KO and VHL KO were generated previously.[45] RKO CRBN/VHL dKO cells were generated by transiently expressing pSpCas9(BB)-2A-GFP (PX458) (Addgene 48138) loaded with a short guide RNA (sgRNA) targeting VHL (Fwd: […], Rev: […]) in RKO CRBN KO cells. Clones were single cell seeded and checked for VHL and CRBN double deletion via Western blot or PCR on genomic DNA (gDNA).
Cells were seeded in 96-well plates at a cell density of 3750 cells per well and treated for 3 days with DMSO or drug at ten √10 serial diluted concentrations. […] Cell viability was assessed using the CellTiter-Glo assay (CellTiter-Glo Luminescent Cell Viability Assay, Promega G7573) according to manufacturer instructions. Luminescence signal was measured on a Multilabel Plate Reader Platform Victor X3 model 2030 (PerkinElmer). Survival curves and EC50 values were determined using GraphPad Prism v.10.0.3 by fitting a nonlinear regression to the log10-transformed drug concentration and the relative viability after normalization of each data point to the mean luminescence of the lowest drug concentration.

The next assay addresses BRD4 (Homo sapiens, UniProt O60885). The experiment in a line: Live cell kinetic HiBiT degradation assay, HiBiT-BRD4 HEK293 cells (parental, CRBN KO, VHL KO). As to conditions: for EC50: HiBiT-BRD4 CRISPR knock-in HEK293 cells, live cell kinetic degradation, 24 h, read-out: Dmax 50 BRD4; for on-target BRD4 degradation activity (in words): parental, CRBN KO and VHL KO HiBiT-BRD4 HEK293 cells (Figure S5). It is filed as cell-based. As to the method: (§1) HEK293 HiBiT-BRD2 (LgBiT stable), HEK293 HiBiT-BRD3 (LgBiT stable), and HEK293 HiBiT-BRD4 (LgBiT stable) were created using CRISPR/Cas9 to insert at HiBiT tag at the N-terminal genomic loci of BRD2, BRD3, or BRD4 in a cell line stably expressing LgBiT protein as described previously.[23]
(§2) For kinetic degradation experiments, HEK293 HiBiT-BRD2, 3, or 4 (LgBiT stable) cells and HEK293 HiBiT-BRD4 (LgBiT) CRBN KO and VHL KO cells were plated at 20,000 cells/well in DMEM +10% FBS in white 96-well tissue culture plates and allowed to adhere overnight. The next day, media was removed and 90 μL of prewarmed CO2-independent medium (Gibco) containing Endurazine (Promega) at a 1:100 dilution from stock was added. Plates were incubated at 37 °C for 3 h to allow luminescence to equilibrate. A threefold dilution series of each PROTAC at 10x the desired final concentration was prepared (with the amount of DMSO in each treatment condition kept constant). After luminescence equilibration, a preread luminescence measurement was taken (prior to compound addition) to allow for baseline normalization to account for possible plating differences. Cells were then treated with 10 μL of the prepared PROTAC dilution series (in triplicate or quadruplicate). Treated plates were placed in a GloMax Discover luminometer (Promega) prewarmed to 37 °C and luminescence measurements were obtained every 7 min for 24 h. Kinetic degradation plots were obtained by first normalizing time course luminescence readings in each well to the preread measurement, then to the average value of the DMSO only control at each time point. Data was analyzed using GraphPad Prism (version 8) and excel. Dmax values were identified as the lowest luminescence reading in each well. Rate constant values were calculated using a one phase exponential decay Y = (Y0-Plateau) e(K*^X) + Plateau using Prism (Y0 constrained to 1). Dmax 50 values were calculated by plotting Dmax as a function of concentration, then fitting plots using the following equation: [drawing 1] to determine IC50.
HiBiT-BRD4 (LgBiT stable) HEK293 cells (Promega) were used to generate both VHL KO HiBiT-BRD4 (LgBiT stable) and CRBN KO HiBiT-BRD4 (LgBiT stable) cell lines. For VHL, gRNAs targeting exon 1 ([…]) and exon 2 ([…]) and for CRBN, gRNAs targeting exon 3 ([…]) and exon 6 ([…]) were purchased from IDT DNA (Table 5). For each gRNA, tracrRNA/crRNA duplexes were formed by combining 10 μL of 100 μM Alt-R […] (IDT), 100 μM Alt-R crRNA (IDT) and heating at 95C for 5 min, then were allowed to cool to room temp for 20 min. RNPs were then formed by combining 75 pmol Cas9 (IDT) with 2.4 μL total of prepared tracrRNA/crRNA complex (1.2 μL for each gRNA targeting each exon). Cells were then trypsinized and resuspended at 10,000,000 cells/mL in 1 mL of Mirus Ingenio electroporation solution. Three μL of 100 μM electroporation enhancer (Mirus) was added, along with 3 μL of RNP solution. Cells were electroporated in 2 mm cuvettes using a BioRad system (190 V, 950 μF, infinite resistance) and were then plated in a T75 flask in full growth medium to allow for recovery. After recovery from electroporation, knockout pools were sorted for single cells in 96-well tissue culture treated plates. Clonal populations which expanded from single cells were then screened for loss of function of VHL by treating with MZ1, or loss of function of CRBN by treating with dBET6, using a HiBiT-BRD4 luminescent readout assay. Genomic DNA isolated from candidate clones was then PCR-amplified (Table of primers below), Gibson-assembled into a pF1A plasmid backbone, transformed into E. coli., and then Sanger sequenced to confirm presence of indels in the targeted exons. […] VHL exon 3 carried a 19 bp deletion on one allele, and a 1 bp insertion on the other allele, both occurring after the premature stop codon in exon 1.

The subject of a further assay is K562 cells. As to the kind of experiment: Cell viability assay (CellTiter-Glo). The class given is cell-based, human. To be noted: Homo sapiens; WT K562, 5.12 pM to 10 uM, n = 3 (Table S4). Here is the method:
(§3) Cells were seeded in 96-well plates at a cell density of […], and each treatment was performed in biological triplicates. Cell viability was assessed using the CellTiter-Glo assay (CellTiter-Glo Luminescent Cell Viability Assay, Promega G7573) according to manufacturer instructions. Luminescence signal was measured on a Multilabel Plate Reader Platform Victor X3 model 2030 (PerkinElmer). Survival curves and EC50 values were determined using GraphPad Prism v.10.0.3 by fitting a nonlinear regression to the log10-transformed drug concentration and the relative viability after normalization of each data point to the mean luminescence of the lowest drug concentration.
(In general: In ATP-based viability assays light output follows the ATP content of the culture.)

The test system of another assay is KBM7 cells. As to the kind of experiment: Cell viability assay (CellTiter-Glo). It is filed as cell-based, human. To be noted: Homo sapiens, KBM-7; WT KBM7, 5.12 pM to 10 uM, n = 3 (Table S4). Here is the method:
as §3

Another assay has as its target T1, BRD3 (Homo sapiens, UniProt Q15059).
T1 construct: HiBiT, is appended to the N-terminus of endogenous BRD2, BRD3, and BRD4; endogenous in cells
The experiment in a line: Live cell kinetic HiBiT degradation assay, HiBiT-BRD3 HEK293 cells. It is filed as cell-based. Here is the method:
as §1, §2
For orientation: HiBiT is a short tag that completes a luciferase, so light tracks the accessible tagged protein.

The mark [1] stands for this setting: 72 h, 500 pM to 10 μM, 3 days (Figure 10, Table S6), read-out: EC50 RKO WT.

Molecules are shown by their SMILES. “Also recorded” adds a separate entry of the source. Where two headings read alike, the source gives them in different places.

T1 sequence (Q15059 whole entry): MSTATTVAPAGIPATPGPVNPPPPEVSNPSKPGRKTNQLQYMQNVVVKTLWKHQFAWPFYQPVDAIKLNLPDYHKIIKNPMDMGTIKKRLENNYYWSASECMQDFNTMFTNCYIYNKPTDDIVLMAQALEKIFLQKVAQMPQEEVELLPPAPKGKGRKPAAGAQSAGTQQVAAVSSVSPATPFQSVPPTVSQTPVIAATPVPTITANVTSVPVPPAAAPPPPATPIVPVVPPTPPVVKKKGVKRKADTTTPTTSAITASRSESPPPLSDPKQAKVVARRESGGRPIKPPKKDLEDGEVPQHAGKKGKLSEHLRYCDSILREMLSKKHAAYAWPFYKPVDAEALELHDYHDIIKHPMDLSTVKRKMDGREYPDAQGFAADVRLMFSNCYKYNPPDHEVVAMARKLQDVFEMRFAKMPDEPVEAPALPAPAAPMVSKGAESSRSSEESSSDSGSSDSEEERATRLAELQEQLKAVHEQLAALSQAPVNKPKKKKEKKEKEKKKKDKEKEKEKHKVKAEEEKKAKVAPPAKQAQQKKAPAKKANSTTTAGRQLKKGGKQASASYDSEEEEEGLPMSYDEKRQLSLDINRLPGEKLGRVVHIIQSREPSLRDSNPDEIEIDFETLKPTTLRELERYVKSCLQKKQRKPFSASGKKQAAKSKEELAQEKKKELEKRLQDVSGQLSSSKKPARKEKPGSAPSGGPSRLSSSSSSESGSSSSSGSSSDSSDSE

Take `Cc1ncsc1-c1ccc(CNC(=O)[C@@H]2C[C@@H](O)CN2C(=O)[C@@H](NC(=O)COCC(C)(COCCOCCOCCNc2cc3c(cc2F)C(=O)N(C2CCC(=O)NC2=O)C3=O)COCCOCCOC(=O)C[C@@H]2N=C(c3ccc(Cl)cc3)c3c(sc(C)c3C)-n3c(C)nnc32)C(C)(C)C)cc1` (mixture of isomers) [AB3065 (28), (14S)-8-((2-(2-(2-((2-(2,6-dioxopiperidin-3-yl)-6-fluoro-1,3-dioxoisoindolin-5-yl)amino)ethoxy)ethoxy)ethoxy)methyl)-14-((2S,4R)-4-hydroxy-2-((4-(4-methylthiazol-5-yl)benzyl)carbamoyl)pyrrolidine-1-carbonyl)-8,15,15-trimethyl-12-oxo-3,6,10-trioxa-13-azahexadecyl 2-((S)-4-(4-chlorophenyl)-2,3,9-trimethyl-6H-thieno[3,2-f][1,2,4]triazolo[4,3-a][1,4]diazepin-6-yl)acetate]: the EC50 in the assay with RKO WT cells (WT RKO, 316 pM to 10 μM, n = 3 (Table S4), read-out: EC50 RKO) is 0.214 µM; on BRD4, 0.0029 µM; in the assay with K562 cells it was 0.11 µM; with KBM7 cells, 0.0394 µM. Moreover, the “λmax BRD4 (degradation rate)” value at BRD4 (HiBiT-BRD4 knock-in HEK293 cells) was found to be 1.51 h⁻¹. The DC50 at BRD3 (HiBiT-BRD3 CRISPR knock-in HEK293 cells, live cell kinetic degradation, 24 h, read-out: Dmax 50 BRD3) worked out at 0.0012 µM. In addition, the “λmax BRD3 (degradation rate)” value on BRD3 (HiBiT-BRD3 knock-in HEK293 cells) stood at 2.14 h⁻¹.
Consider `Cc1ncsc1-c1ccc([C@H](C)NC(=O)[C@@H]2C[C@H](O)CN2C(=O)[C@@H](NC(=O)COCC(C)(COCCOCCOCCNc2cc3c(cc2F)C(=O)N(C2CCC(=O)N(C)C2=O)C3=O)COCCOCCOCCOC(=O)C[C@@H]2N=C(c3ccc(Cl)cc3)c3c(sc(C)c3C)-n3c(C)nnc32)C(C)(C)C)cc1` (mixture of isomers) [neg-cis-AB3067 (95), (17S)-11-((2-(2-(2-((6-fluoro-2-(1-methyl-2,6-dioxopiperidin-3-yl)-1,3-dioxoisoindolin-5-yl)amino)ethoxy)ethoxy)ethoxy)methyl)-17-((2S,4S)-4-hydroxy-2-(((S)-1-(4-(4-methylthiazol-5-yl)phenyl)ethyl)carbamoyl)pyrrolidine-1-carbonyl)-11,18,18-trimethyl-15-oxo-3,6,9,13-tetraoxa-16-azanonadecyl 2-((S)-4-(4-chlorophenyl)-2,3,9-trimethyl-6H-thieno[3,2-f][1,2,4]triazolo[4,3-a][1,4]diazepin-6-yl)acetate], for which the EC50 was 0.594 µM in the assay on RKO WT cells (setting [1]); 0.522 to 0.657 µM with RKO WT cells (RKO, span over RKO WT, CRBN KO, VHL KO and CRBN/VHL dKO (Figure 10), read-out: EC50s in each WT, KO and dKO RKO cell line). Also, the “on-target BRD4 degradation activity (in words)” value at BRD4 is on record as “no degradation of BRD4 in any of the cell lines”.
`Cc1ncsc1-c1ccc([C@H](C)NC(=O)[C@@H]2C[C@H](O)CN2C(=O)[C@@H](NC(=O)COCC(C)(COCCOCCOCCNc2cc3c(cc2F)C(=O)N(C2CCC(=O)NC2=O)C3=O)COCCOCCOCCOC(=O)C[C@@H]2N=C(c3ccc(Cl)cc3)c3c(sc(C)c3C)-n3c(C)nnc32)C(C)(C)C)cc1` (mixture of isomers) [cis-AB3067 (94), (17S)-11-((2-(2-(2-((2-(2,6-dioxopiperidin-3-yl)-6-fluoro-1,3-dioxoisoindolin-5-yl)amino)ethoxy)ethoxy)ethoxy)methyl)-17-((2S,4S)-4-hydroxy-2-(((S)-1-(4-(4-methylthiazol-5-yl)phenyl)ethyl)carbamoyl)pyrrolidine-1-carbonyl)-11,18,18-trimethyl-15-oxo-3,6,9,13-tetraoxa-16-azanonadecyl 2-((S)-4-(4-chlorophenyl)-2,3,9-trimethyl-6H-thieno[3,2-f][1,2,4]triazolo[4,3-a][1,4]diazepin-6-yl)acetate]: the EC50 in the assay on RKO WT cells (setting [1]) was determined as 0.048 µM. Further, the “on-target BRD4 degradation activity (in words)” value on BRD4 (listed as 94) was “inactive in CRBN KO cells; also recorded: increase in degradation potency relative to 27 in both parental and VHL KO cells”.
On to `Cc1ncsc1-c1ccc(CNC(=O)[C@@H]2C[C@@H](O)CN2C(=O)[C@@H](NC(=O)COCC(COCCOCCOCCNc2cc3c(cc2F)C(=O)N(C2CCC(=O)NC2=O)C3=O)(COCCOCCOCCOC(=O)C[C@@H]2N=C(c3ccc(Cl)cc3)c3c(sc(C)c3C)-n3c(C)nnc32)COCCOCCOCCOC(=O)C[C@@H]2N=C(c3ccc(Cl)cc3)c3c(sc(C)c3C)-n3c(C)nnc32)C(C)(C)C)cc1` (mixture of isomers) [AB3124 (86)], for which the EC50 was found to be 0.033 µM with RKO WT cells (72 h, 316 pM to 10 μM, 3 days, n = 3 (Figures 5 and 8C, Table S5), read-out: EC50 RKO WT); 0.0011 µM on BRD4. The “treatment concentrations with observable hook-effect” value at BRD4 (HiBiT-BRD4 HEK293 cells) was at least 333 nM. Also, the “BRD4 degradation rate (in words)” value at BRD4 (HiBiT-BRD4 HEK293 cells (Figure S4)) was “remarkably slow compared to the rapid degradation mediated by 27”. The greatest degradation seen (Dmax) at BRD4 (HiBiT-BRD4 HEK293 cells, read-out: final Dmax less than for 26 and 27) is above 10%.

For orientation: Dmax means the greatest extent of degradation seen.
